Measured values reported in PubChem BioAssay AID1259407 (Chemical Carcinogenesis Research Information System (CCRIS), 2018).
The source made the active and inactive calls. The rule behind the calls is not given here.

System: CCRIS mutagenicity, Ames/micronucleus/aberration tests
Experiment: CCRIS mutagenicity studies
[1] = Test System: AMES SALMONELLA TYPHIMURIUM, Strain/Indicator: TA98, Metabolic Activation: NONE, Method: STANDARD PLATE
[2] = Test System: AMES SALMONELLA TYPHIMURIUM, Strain/Indicator: TA98, Metabolic Activation: RAT, LIVER, S-9, AROCLOR 1254, Method: STANDARD PLATE
[3] = Test System: AMES SALMONELLA TYPHIMURIUM, Strain/Indicator: TA100, Metabolic Activation: NONE, Method: STANDARD PLATE
[4] = Test System: AMES SALMONELLA TYPHIMURIUM, Strain/Indicator: TA100, Metabolic Activation: RAT, LIVER, S-9, AROCLOR 1254, Method: STANDARD PLATE
[5] = Test System: AMES SALMONELLA TYPHIMURIUM, Strain/Indicator: TA100, Metabolic Activation: NONE, Method: PREINCUBATION

**Q.** How did the mutagenic call (Test System: AMES SALMONELLA TYPHIMURIUM, Strain/Indicator: TA97, Metabolic Activation: NONE, Method: STANDARD PLATE) turn out when O=C1CNC(=O)N1 was run?
**A.** inactive; negative

**Q.** What about the mutagenic call (Test System: AMES SALMONELLA TYPHIMURIUM, Strain/Indicator: TA97, Metabolic Activation: RAT, LIVER, S-9, AROCLOR 1254, Method: STANDARD PLATE) of the same compound?
**A.** inactive; negative

**Q.** And the mutagenic call [1]?
**A.** inactive; negative

**Q.** What about the mutagenic call [2] of the same compound?
**A.** inactive; negative

**Q.** And the mutagenic call [3]?
**A.** inactive; negative

**Q.** What about the mutagenic call [4] of the same compound?
**A.** inactive; negative

**Q.** And the mutagenic call (Test System: AMES SALMONELLA TYPHIMURIUM, Strain/Indicator: TA102, Metabolic Activation: NONE, Method: STANDARD PLATE)?
**A.** inactive; negative

**Q.** And the mutagenic call (Test System: AMES SALMONELLA TYPHIMURIUM, Strain/Indicator: TA102, Metabolic Activation: RAT, LIVER, S-9, AROCLOR 1254, Method: STANDARD PLATE)?
**A.** inactive; negative

**Q.** What does the source list for Nc1cccc2cc3ccccc3cc12?
**A.** mutagenic call [1]: inactive; negative; mutagenic call (Test System: AMES SALMONELLA TYPHIMURIUM, Strain/Indicator: TA98, Metabolic Activation: RAT LIVER, CYTOSOL, AROCLOR 1254, Method: STANDARD PLATE): inactive; negative; mutagenic call (Test System: AMES SALMONELLA TYPHIMURIUM, Strain/Indicator: TA98, Metabolic Activation: RAT LIVER, MICROSOMES, AROCLOR 1254, Method: STANDARD PLATE): active; positive; mutagenic call (Test System: AMES SALMONELLA TYPHIMURIUM, Strain/Indicator: TA98, Metabolic Activation: RAT, LIVER, S-9, AROCLOR 1254 (2 OR 4%), Method: STANDARD PLATE): active; positive; mutagenic call [2]: active; positive; mutagenic call (Test System: AMES SALMONELLA TYPHIMURIUM, Strain/Indicator: TA98, Metabolic Activation: RAT, LIVER, S-9, PHENOBARBITAL, Method: STANDARD PLATE): active; positive; mutagenic call [3]: inactive; negative; mutagenic call (Test System: AMES SALMONELLA TYPHIMURIUM, Strain/Indicator: TA100, Metabolic Activation: RAT, LIVER, S-9, AROCLOR 1254 (2%), Method: STANDARD PLATE): inactive; negative; mutagenic call [4]: active; positive; mutagenic call (Test System: AMES SALMONELLA TYPHIMURIUM, Strain/Indicator: TA100, Metabolic Activation: RAT, LIVER, S-9, PHENOBARBITAL, Method: STANDARD PLATE): active; positive; mutagenic call (Test System: AMES SALMONELLA TYPHIMURIUM, Strain/Indicator: TA1535, Metabolic Activation: RAT, LIVER, S-9, AROCLOR 1254 (2%), Method: STANDARD PLATE): active; positive; mutagenic call (Test System: AMES SALMONELLA TYPHIMURIUM, Strain/Indicator: TA1537, Metabolic Activation: RAT, LIVER, S-9, AROCLOR 1254 (2%), Method: STANDARD PLATE): active; positive; mutagenic call (Test System: MOUSE LYMPHOMA, Strain/Indicator: L5178Y (TK+/TK-), Metabolic Activation: RAT, LIVER, S-9, AROCLOR 1254, Method: SUSPENSION/PLATE): active; positive

**Q.** How did the mutagenic call [1] turn out when CNC(=O)ON was run?
**A.** active; positive

**Q.** What about the mutagenic call (Test System: AMES SALMONELLA TYPHIMURIUM, Strain/Indicator: TA98, Metabolic Activation: RAT, LIVER, S-9, Method: STANDARD PLATE) of the same compound?
**A.** active; positive

**Q.** And the mutagenic call [3]?
**A.** active; positive

**Q.** C=CC1=C(C)C(=O)N/C1=C\c1[nH]c(Cc2[nH]c(/C=C3\NC(=O)C(C)=C3C=C)c(C)c2CCC(=O)NCCS(=O)(=O)O)c(CCC(=O)NCCS(=O)(=O)O)c1C was tested. Which mutagenic call (Test System: Ames Salmonella typhimurium, Strain/Indicator: TA98, Metabolic Activation: Liver, S-9, Method: Preincubation) did it give?
**A.** inactive; negative

**Q.** And the mutagenic call (Test System: Ames Salmonella typhimurium, Strain/Indicator: TA98, Metabolic Activation: None, Method: Preincubation)?
**A.** inactive; negative

**Q.** What about the mutagenic call (Test System: Ames Salmonella typhimurium, Strain/Indicator: TA100, Metabolic Activation: Liver, S-9, Method: Preincubation) of the same compound?
**A.** inactive; negative

**Q.** And the mutagenic call (Test System: Ames Salmonella typhimurium, Strain/Indicator: TA100, Metabolic Activation: None, Method: Preincubation)?
**A.** inactive; negative

**Q.** And the mutagenic call (Test System: Ames Salmonella typhimurium, Strain/Indicator: TA102, Metabolic Activation: Liver, S-9, Method: Preincubation)?
**A.** inactive; negative

**Q.** And the mutagenic call (Test System: Ames Salmonella typhimurium, Strain/Indicator: TA102, Metabolic Activation: None, Method: Preincubation)?
**A.** inactive; negative

**Q.** For C1CCCNCC1, which mutagenic call (Test System: AMES SALMONELLA TYPHIMURIUM, Strain/Indicator: TA98, Metabolic Activation: NONE, Method: PREINCUBATION) is on record?
**A.** inactive; negative

**Q.** And the mutagenic call (Test System: AMES SALMONELLA TYPHIMURIUM, Strain/Indicator: TA98, Metabolic Activation: RAT LIVER S-9, PHENOBARBITAL AND BETA-NAPHTHOFLAVONE, Method: PREINCUBATION)?
**A.** inactive; negative

**Q.** What about the mutagenic call [5] of the same compound?
**A.** inactive; negative

**Q.** What about the mutagenic call (Test System: AMES SALMONELLA TYPHIMURIUM, Strain/Indicator: TA100, Metabolic Activation: RAT LIVER S-9, PHENOBARBITAL AND BETA-NAPHTHOFLAVONE, Method: PREINCUBATION) of the same compound?
**A.** inactive; negative

**Q.** And the mutagenic call (Test System: AMES SALMONELLA TYPHIMURIUM, Strain/Indicator: TA1535, Metabolic Activation: NONE, Method: PREINCUBATION)?
**A.** inactive; negative

**Q.** What about the mutagenic call (Test System: AMES SALMONELLA TYPHIMURIUM, Strain/Indicator: TA1535, Metabolic Activation: RAT LIVER S-9, PHENOBARBITAL AND BETA-NAPHTHOFLAVONE, Method: PREINCUBATION) of the same compound?
**A.** inactive; negative

**Q.** What about the mutagenic call (Test System: AMES SALMONELLA TYPHIMURIUM, Strain/Indicator: TA1537, Metabolic Activation: NONE, Method: PREINCUBATION) of the same compound?
**A.** inactive; negative

**Q.** What about the mutagenic call (Test System: AMES SALMONELLA TYPHIMURIUM, Strain/Indicator: TA1537, Metabolic Activation: RAT LIVER S-9, PHENOBARBITAL AND BETA-NAPHTHOFLAVONE, Method: PREINCUBATION) of the same compound?
**A.** inactive; negative

**Q.** And the mutagenic call (Test System: E.COLI, Strain/Indicator: WP2UVRA, Metabolic Activation: NONE, Method: PREINCUBATION)?
**A.** inactive; negative

**Q.** What about the mutagenic call (Test System: E.COLI, Strain/Indicator: WP2UVRA, Metabolic Activation: RAT LIVER S-9, PHENOBARBITAL AND BETA-NAPHTHOFLAVONE, Method: PREINCUBATION) of the same compound?
**A.** inactive; negative

**Q.** What does the source list for CCCCCCCCCC(=O)OCCN1CCN(CCCN2c3ccccc3Sc3ccc(C(F)(F)F)cc32)CC1?
**A.** mutagenic call (Test System: AMES SALMONELLA TYPHIMURIUM, Strain/Indicator: TA98, Metabolic Activation: NONE): inactive; negative; mutagenic call (Test System: AMES SALMONELLA TYPHIMURIUM, Strain/Indicator: TA98, Metabolic Activation: RAT, LIVER, S-9, PHENOBARBITAL AND 5,6-BENZOFLAVONE): inactive; negative; mutagenic call [5]: inactive; negative; mutagenic call (Test System: AMES SALMONELLA TYPHIMURIUM, Strain/Indicator: TA100, Metabolic Activation: RAT, LIVER, S-9, PHENOBARBITAL AND 5,6-BENZOFLAVONE): inactive; negative; mutagenic call (Test System: AMES SALMONELLA TYPHIMURIUM, Strain/Indicator: TA1535, Metabolic Activation: NONE): inactive; negative; mutagenic call (Test System: AMES SALMONELLA TYPHIMURIUM, Strain/Indicator: TA1535, Metabolic Activation: RAT, LIVER, S-9, PHENOBARBITAL AND 5,6-BENZOFLAVONE): inactive; negative; mutagenic call (Test System: AMES SALMONELLA TYPHIMURIUM, Strain/Indicator: TA1537, Metabolic Activation: NONE): inactive; negative; mutagenic call (Test System: AMES SALMONELLA TYPHIMURIUM, Strain/Indicator: TA1537, Metabolic Activation: RAT, LIVER, S-9, PHENOBARBITAL AND 5,6-BENZOFLAVONE): inactive; negative; mutagenic call (Test System: E. COLI, Strain/Indicator: WP2 UVRA, Metabolic Activation: NONE): inactive; negative; mutagenic call (Test System: E. COLI, Strain/Indicator: WP2 UVRA, Metabolic Activation: RAT, LIVER, S-9, PHENOBARBITAL AND 5,6-BENZOFLAVONE): inactive; negative
